Source: US20180237441A1, “Chemical Compounds” (GlaxoSmithKline Intellectual Property (No.2) Limited, priority 2015, published 2018)

Molecular target: T1, PERK (Homo sapiens, UniProt Q9NZJ5)
T1 sequence (Q9NZJ5 30-1116): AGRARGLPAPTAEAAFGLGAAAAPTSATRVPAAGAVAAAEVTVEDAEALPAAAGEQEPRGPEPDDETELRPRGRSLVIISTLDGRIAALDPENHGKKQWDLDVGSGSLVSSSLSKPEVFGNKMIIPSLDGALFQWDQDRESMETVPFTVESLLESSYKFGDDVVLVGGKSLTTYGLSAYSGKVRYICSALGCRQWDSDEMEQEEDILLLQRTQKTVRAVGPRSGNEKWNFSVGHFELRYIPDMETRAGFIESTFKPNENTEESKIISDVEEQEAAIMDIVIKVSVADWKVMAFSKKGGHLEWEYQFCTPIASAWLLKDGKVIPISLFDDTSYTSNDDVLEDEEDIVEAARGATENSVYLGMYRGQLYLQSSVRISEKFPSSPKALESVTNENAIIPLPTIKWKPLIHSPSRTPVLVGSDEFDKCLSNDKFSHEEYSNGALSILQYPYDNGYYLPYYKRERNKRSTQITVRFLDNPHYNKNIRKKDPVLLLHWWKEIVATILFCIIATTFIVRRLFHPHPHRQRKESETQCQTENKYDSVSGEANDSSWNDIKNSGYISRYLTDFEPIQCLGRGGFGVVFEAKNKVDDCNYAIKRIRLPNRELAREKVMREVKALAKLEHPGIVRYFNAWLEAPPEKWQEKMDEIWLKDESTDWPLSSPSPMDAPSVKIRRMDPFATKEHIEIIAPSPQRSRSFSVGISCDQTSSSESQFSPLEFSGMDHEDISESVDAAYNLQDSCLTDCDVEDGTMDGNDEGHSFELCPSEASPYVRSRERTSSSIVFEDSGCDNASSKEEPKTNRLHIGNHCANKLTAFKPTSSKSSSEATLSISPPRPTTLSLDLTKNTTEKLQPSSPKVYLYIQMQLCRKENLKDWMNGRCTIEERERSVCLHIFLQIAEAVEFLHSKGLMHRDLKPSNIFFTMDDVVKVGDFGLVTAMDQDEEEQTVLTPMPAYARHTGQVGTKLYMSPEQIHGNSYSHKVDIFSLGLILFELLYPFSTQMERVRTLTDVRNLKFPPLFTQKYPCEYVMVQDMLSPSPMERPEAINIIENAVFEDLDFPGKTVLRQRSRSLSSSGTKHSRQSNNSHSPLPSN
Test: PERK enzyme assay (HTRF)
Assay type: biochemical
Conditions: 500 μM ATP; at least one experimental run; read-out: PERK Enzyme (500 μM ATP) IC50
Summary of the method: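 GST-PERK (0.75 nM final) pre-incubated 30–60 min with compound (≤1% DMSO) in HEPES pH 7.5/CHAPS/MgCl2/DTT, then 500 μM ATP and 40 nM biotin-eIF2α added for 60 min. EDTA quench; HTRF detection of phospho-eIF2α (Eu anti-rabbit/streptavidin-APC) read after 2 h; IC50 from concentration series.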

IC50 [nM]	SMILES
3640	Cn1cc(-c2ccc(N3CC(c4cc(F)ccc4F)N(Cc4ccccc4)C3=O)cc2F)c2c(N)ncnc21 (centres unmarked) [Example 20, 1-(4-(4-amino-7-methyl-7H-pyrrolo[2,3-d]pyrimidin-5-yl)-3-fluorophenyl)-3-benzyl-4-(2,5-difluorophenyl)imidazolidin-2-one]
74.2	CN1C(=O)N(c2ccc(-c3cn(C)c4ncnc(N)c34)c(F)c2)CC1c1cc(F)cc(F)c1 (centres unmarked) [Example 25, 1-(4-(4-amino-7-methyl-7H-pyrrolo[2,3-d]pyrimidin-5-yl)-3-fluorophenyl)-4-(3,5-difluorophenyl)-3-methylimidazolidin-2-one]

Same assay, conditions: PERK Enzyme (500 μM ATP) IC50; at least one experimental run; read-out: PERK Activity

SMILES	IC50 [nM]
CCN1C(=O)N(c2ccc(-c3cn(C4CC4)c4ncnc(N)c34)c(F)c2)CC1c1cc(F)ccc1F (centres unmarked) [Example 120, 1-(4-(4-amino-7-cyclopropyl-7H-pyrrolo[2,3-d]pyrimidin-5-yl)-3-fluorophenyl)-4-(2,5-difluorophenyl)-3-ethylimidazolidin-2-one]	< 100
CCN1C(=O)N(c2ccc(-c3cn(C4CC4)c4ncnc(N)c34)c(F)c2)CC1c1cc(F)cc(F)c1 (centres unmarked) [Example 170, 1-(4-(4-amino-7-cyclopropyl-7H-pyrrolo[2,3-d]pyrimidin-5-yl)-3-fluorophenyl)-4-(3,5-difluorophenyl)-3-ethylimidazolidin-2-one]	< 100
CN1C(=O)N(c2ccc(-c3cn(C4CC4)c4ncnc(N)c34)c(F)c2)CC1c1cc(F)c(F)cc1F (single isomer, unassigned) [Example 160, 1-(4-(4-amino-7-cyclopropyl-7H-pyrrolo[2,3-d]pyrimidin-5-yl)-3-fluorophenyl)-3-methyl-4-(2,4,5-trifluorophenyl)imidazolidin-2-one]	< 100
CN1C(=O)N(c2ccc(-c3cn(C)c4ncnc(N)c34)c(F)c2)CC1c1ccc(F)cc1 (centres unmarked) [Example 68, 1-(4-(4-amino-7-methyl-7H-pyrrolo[2,3-d]pyrimidin-5-yl)-3-fluorophenyl)-4-(4-fluorophenyl)-3-methylimidazolidin-2-one]	< 100
CN1C(=O)N(c2ccc(-c3cn(C4CC4)c4ncnc(N)c34)c(Cl)c2)CC1c1cc(F)cc(F)c1 (single isomer, unassigned) [Example 130, 1-(4-(4-amino-7-cyclopropyl-7H-pyrrolo[2,3-d]pyrimidin-5-yl)-3-chlorophenyl)-4-(3,5-difluorophenyl)-3-methylimidazolidin-2-one]	< 100
Cn1cc(-c2ccc(N3CC(c4cc(F)ccc4F)N(Cc4ccccc4)C3=O)cc2F)c2c(N)ncnc21 (centres unmarked) [Example 20, 1-(4-(4-amino-7-methyl-7H-pyrrolo[2,3-d]pyrimidin-5-yl)-3-fluorophenyl)-3-benzyl-4-(2,5-difluorophenyl)imidazolidin-2-one]	> 1000
CCN1C(=O)N(c2ccc(-c3cn(C4CC4)c4ncnc(N)c34)c(F)c2)CC1c1cc(F)ccc1F (single isomer, unassigned) [Example 124, 1-(4-(4-amino-7-cyclopropyl-7H-pyrrolo[2,3-d]pyrimidin-5-yl)-3-fluorophenyl)-4-(2,5-difluorophenyl)-3-ethylimidazolidin-2-one]	< 100
Cc1cc(N2CC(c3cc(F)cc(F)c3)CC2=O)ccc1-c1cn(C)c2ncnc(N)c12 (centres unmarked) [Example 5, 1-(4-(4-Amino-7-methyl-7H-pyrrolo[2,3-d]pyrimidin-5-yl)-3-methylphenyl)-4-(3,5-difluorophenyl)pyrrolidin-2-one]	100 to 1000
CN1C(=O)N(c2ccc(-c3cn(C4CC4)c4ncnc(N)c34)c(F)c2)CC1c1ccccc1 (single isomer, unassigned) [Example 166, 1-(4-(4-amino-7-cyclopropyl-7H-pyrrolo[2,3-d]pyrimidin-5-yl)-3-fluorophenyl)-3-methyl-4-phenylimidazolidin-2-one]	< 100
CN1C(=O)N(c2ccc(-c3cn(C4CC4)c4ncnc(N)c34)c(F)c2)CC1c1cccc(Cl)c1 (single isomer, unassigned) [Example 152, 1-(4-(4-amino-7-cyclopropyl-7H-pyrrolo[2,3-d]pyrimidin-5-yl)-3-fluorophenyl)-4-(3-chlorophenyl)-3-methylimidazolidin-2-one]	< 100
CCN1C(=O)N(c2ccc(-c3cn(C)c4ncnc(N)c34)c(F)c2)CC1c1cc(F)cc(C(F)(F)F)c1 (single isomer, unassigned) [Example 89, 1-(4-(4-amino-7-methyl-7H-pyrrolo[2,3-d]pyrimidin-5-yl)-3-fluorophenyl)-3-ethyl-4-(3-fluoro-5-(trifluoromethyl)phenyl)imidazolidin-2-one]	100 to 1000
CN1C(=O)N(c2ccc(-c3cn(C)c4ncnc(N)c34)c(F)c2)CC1c1cc(F)cc(F)c1 (centres unmarked) [Example 25, 1-(4-(4-amino-7-methyl-7H-pyrrolo[2,3-d]pyrimidin-5-yl)-3-fluorophenyl)-4-(3,5-difluorophenyl)-3-methylimidazolidin-2-one]	< 100
Cn1cc(-c2ccc(N3CC(c4cc(F)cc(F)c4)CC3=O)cc2F)c2c(N)ncnc21 (centres unmarked) [Example 4, 1-(4-(4-Amino-7-methyl-7H-pyrrolo[2,3-d]pyrimidin-5-yl)-3-fluorophenyl)-4-(3,5-difluorophenyl)pyrrolidin-2-one]	100 to 1000
CN1C(=O)N(c2ccc(-c3cn(C)c4ncnc(N)c34)c(F)c2)CC1c1cccnc1 (centres unmarked) [Example 60, 1-(4-(4-amino-7-methyl-7H-pyrrolo[2,3-d]pyrimidin-5-yl)-3-fluorophenyl)-3-methyl-4-(pyridin-3-yl)imidazolidin-2-one]	< 100

The remaining lines, values ahead:

IC50 [nM]	SMILES
100 to 1000	Cc1nc(C2CN(c3ccc(-c4cn(C)c5ncnc(N)c45)c(F)c3)C(=O)N2C)ccc1F (centres unmarked) [Example 112, 1-(4-(4-amino-7-methyl-7H-pyrrolo[2,3-d]pyrimidin-5-yl)-3-fluorophenyl)-4-(5-fluoro-6-methylpyridin-2-yl)-3-methylimidazolidin-2-one]
< 100	Cc1nc(N)c2c(-c3ccc(N4CC(c5ccc(F)c(F)c5)N(C)C4=O)cc3F)cn(C)c2n1 (centres unmarked) [Example 78, 1-(4-(4-amino-2,7-dimethyl-7H-pyrrolo[2,3-d]pyrimidin-5-yl)-3-fluorophenyl)-4-(3,4-difluorophenyl)-3-methylimidazolidin-2-one]
< 100	CCN1C(=O)N(c2ccc(-c3cn(C4CC4)c4ncnc(N)c34)c(F)c2)CC1c1ccc(F)cc1F (centres unmarked) [Example 107, 1-(4-(4-amino-7-cyclopropyl-7H-pyrrolo[2,3-d]pyrimidin-5-yl)-3-fluorophenyl)-4-(2,4-difluorophenyl)-3-ethylimidazolidin-2-one]
< 100	Cc1nc(N)c2c(-c3ccc(N4CC(c5ccc(F)cc5F)N(C)C4=O)cc3F)nn(C)c2n1 (single isomer, unassigned) [Example 12, 1-(4-(4-amino-1,6-dimethyl-1H-pyrazolo[3,4-d]pyrimidin-3-yl)-3-fluorophenyl)-4-(2,4-difluorophenyl)-3-methylimidazolidin-2-one]
< 100	Cc1nc(N)c2c(-c3ccc(N4CC(c5ccc(F)cc5)N(C)C4=O)cc3F)cn(C3CC3)c2n1 (centres unmarked) [Example 91, 1-(4-(4-amino-7-cyclopropyl-2-methyl-7H-pyrrolo[2,3-d]pyrimidin-5-yl)-3-fluorophenyl)-4-(4-fluorophenyl)-3-methylimidazolidin-2-one]
> 1000	CCN1C(=O)N(c2ccc(-c3cn(C)c4nc(C)nc(N)c34)c(F)c2)CC1c1cc(F)ccc1F (centres unmarked) [Example 19, 1-(4-(4-amino-2,7-dimethyl-7H-pyrrolo[2,3-d]pyrimidin-5-yl)-3-fluorophenyl)-4-(2,5-difluorophenyl)-3-ethylimidazolidin-2-one]
< 100	CN1C(=O)N(c2ccc(-c3cn(C4CC4)c4ncnc(N)c34)c(F)c2)CC1c1cc(F)ccc1F (centres unmarked) [Example 144, 1-(4-(4-amino-7-cyclopropyl-7H-pyrrolo[2,3-d]pyrimidin-5-yl)-3-fluorophenyl)-4-(2,5-difluorophenyl)-3-methylimidazolidin-2-one]
